Measurements from US12084472B2 (Ardelyx, Inc., priority 2015, dated 2024).

target: T1, human TGR5 (Homo sapiens, UniProt Q8TDU6); assay: Cell-based TGR5 assay (cAMP generation, HTRF); conditions: HEK293 cells stably transfected with human TGR5; cAMP by HTRF; 30 minutes at 37° C.; read-out: pEC50 Human TGR5 (converted)
T1 construct: expressed in transfected cells; host or cells: HEK293
T1 sequence (Q8TDU6 1-330): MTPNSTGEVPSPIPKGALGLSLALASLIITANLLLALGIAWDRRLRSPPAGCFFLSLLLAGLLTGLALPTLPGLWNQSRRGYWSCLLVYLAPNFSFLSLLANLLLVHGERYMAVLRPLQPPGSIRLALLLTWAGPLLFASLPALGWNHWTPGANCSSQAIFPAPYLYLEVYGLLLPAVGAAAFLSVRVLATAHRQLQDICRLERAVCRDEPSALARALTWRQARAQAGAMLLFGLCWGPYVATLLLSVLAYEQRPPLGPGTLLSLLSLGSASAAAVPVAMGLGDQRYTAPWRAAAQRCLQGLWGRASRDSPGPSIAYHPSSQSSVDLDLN
Method in brief: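 First, compounds in 3-fold serial dilution were placed in HBSS with 10 mM HEPES pH 7.4 and 0.5 mM IBMX. Next, human TGR5-expressing HEK293 cells were added and incubated 30 min at 37° C. Finally, cAMP was detected by HTRF and pEC50 derived by logistic fitting.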

First: CC(CCCC(=O)NC[C@H](O)[C@@H](O)[C@H](O)[C@H](O)CO)c1cc(Cl)c(COC2(c3cnccc3-c3ccccc3OC3CC3)CC2)cc1Cl (stereo partly drawn) [Compound I-161, 5-[2,5-dichloro-4-({1-[4-(2-cyclopropoxyphenyl)pyridin-3-yl]cyclopropoxy}methyl)phenyl]-N-[(2S,3R,4R,5R)-2,3,4,5,6-pentahydroxyhexyl]hexanamide]
Second: OC[C@@H](O)[C@@H](O)[C@H](O)[C@@H](O)CNCCCCc1cc(Cl)c(COC2(c3cnccc3-c3ccccc3OC3CC3)CC2)cc1Cl [Compound I-66, (2R,3R,4R,5S)-6-(4-(2,5-dichloro-4-((1-(4-(2-cyclopropoxyphenyl)pyridin-3-yl)cyclopropoxy)methyl)phenyl)butylamino)hexane-1,2,3,4,5-pentaol]
The EC50 of the first is lower: under 100 nM for the first, 126 to 1000 nM for the second.

`O=C1CCCN1CCCN(CCCSc1ccc(Cl)c(COC2(c3cnccc3-c3ccccc3OC3CC3)CC2)c1)C(=O)[C@@H](O)[C@@H](O)[C@H](O)[C@@H](O)CO` [Compound I-520, (2S,3S,4R,5S)-N-(3-{[4-chloro-3-({1-[4-(2-cyclopropoxyphenyl)pyridin-3-yl]cyclopropoxy}methyl)phenyl]sulfanyl}propyl)-2,3,4,5,6-pentahydroxy-N-[3-(2-oxopyrrolidin-1-yl)propyl]hexanamide] and `NC(=O)CN(C[C@H](O)[C@@H](O)[C@H](O)[C@H](O)CO)C(=O)CCCSc1ccc(Cl)c(COC2(c3cnccc3-c3ccccc3OC3CC3)CC2)c1` [Compound I-663, N-(carbamoylmethyl)-4-{[4-chloro-3-({1-[4-(2-cyclopropoxyphenyl)pyridin-3-yl]cyclopropoxy}methyl)phenyl]sulfanyl}-N-[(2S,3R,4R,5R)-2,3,4,5,6-pentahydroxyhexyl]butanamide] fall in the same range of EC50: 126 to 1000 nM for the first, 126 to 1000 nM for the second.

`O=C(NCCCCCSc1ccc(Cl)c(CNC2(c3cnccc3-c3ccccc3OC3CC3)CC2)c1)NC[C@H](O)[C@@H](O)[C@H](O)[C@H](O)CO` [Compound I-494, 1-[5-([4-Chloro-3-[([1-[4-(2-cyclopropoxyphenyl)pyridin-3-yl]cyclopropyl]amino)methyl]phenyl]sulfanyl)pentyl]-3-[(2S,3R,4R,5R)-2,3,4,5,6-pentahydroxyhexyl]urea] and `O=C(NCCCSc1ccc(Cl)c(CNC2(c3cnccc3-c3ccccc3OC3CC3)CC2)c1)NC[C@H](O)[C@@H](O)[C@H](O)[C@H](O)CO` [Compound I-622, 1-[3-({4-chloro-3-[({1-[4-(2-cyclopropoxyphenyl)pyridin-3-yl]cyclopropyl}amino)methyl]phenyl}sulfanyl)propyl]-3-[(2S,3R,4R,5R)-2,3,4,5,6-pentahydroxyhexyl]urea] cannot be ordered by EC50: under 100 nM for the first, under 100 nM for the second.

`Cc1ccc(SCCCCC(=O)NC[C@H](O)[C@@H](O)[C@H](O)[C@H](O)CO)nc1CNC1(c2cnccc2-c2ccccc2OC2CC2)CC1` [Compound I-645, 5-({6-[({1-[4-(2-cyclopropoxyphenyl)pyridin-3-yl]cyclopropyl}amino)methyl]-5-methylpyridin-2-yl}sulfanyl)-N-[(2S,3R,4R,5R)-2,3,4,5,6-pentahydroxyhexyl]pentanamide] and `O=C(NCCCCc1ccc(Cl)c(CNC2(c3cnccc3-c3ccccc3OC3CC3)CC2)c1)NC[C@H](O)[C@@H](O)[C@H](O)[C@H](O)CO` [Compound I-64, 1-(4-[4-chloro-3-[([1-[4-(2-cyclopropoxyphenyl)pyridin-3-yl]cyclopropyl]amino)methyl]phenyl]butyl)-3-[(2S,3R,4R,5R)-2,3,4,5,6-pentahydroxyhexyl]urea] cannot be ordered by EC50: under 100 nM for the first, under 100 nM for the second.

First: O=C(COC1CN(S(=O)(=O)c2ccc(Cl)c(COC3(c4cnccc4-c4ccccc4OC4CC4)CC3)c2)C1)NC[C@H](O)[C@@H](O)[C@H](O)[C@H](O)CO [Compound I-454, 2-({1-[4-chloro-3-({1-[4-(2-cyclopropoxyphenyl)pyridin-3-yl]cyclopropoxy}methyl)benzenesulfonyl]azetidin-3-yl}oxy)-N-[(2S,3R,4R,5R)-2,3,4,5,6-pentahydroxyhexyl]acetamide]
Second: CN(CCCCNS(=O)(=O)c1ccc(Cl)c(COC2(c3cnccc3-c3ccccc3OC3CC3)CC2)c1)C(=O)[C@@H](O)[C@@H](O)[C@H](O)[C@@H](O)CO [Compound I-460, (2S,3S,4R,5S)-N-{4-[4-chloro-3-({1-[4-(2-cyclopropoxyphenyl)pyridin-3-yl]cyclopropoxy}methyl)benzenesulfonamido]butyl}-2,3,4,5,6-pentahydroxy-N-methylhexanamide]
The EC50 of the first is higher: 126 to 1000 nM for the first, under 100 nM for the second.

`CC(C)N(CCCCNC(=O)N[C@@H](CO)[C@@H](O)[C@H](O)[C@H](O)CO)S(=O)(=O)c1ccc(Cl)c(CNC(C)(C)c2cnccc2-c2ccccc2OC2CC2)c1` [Compound I-754, 4-chloro-3-(((2-(4-(2-cyclopropoxyphenyl)pyridin-3-yl)propan-2-yl)amino)methyl)-N-isopropyl-N-(4-(3-((2S,3R,4S,5R)-1,3,4,5,6-pentahydroxyhexan-2-yl)ureido)butyl) benzenesulfonamide] and `O=C(NCCCCSc1ccc(Cl)c(COC2(c3cnccc3-c3ccccc3OC3CC3)CC2)c1)N[C@@H](CO)[C@@H](O)[C@H](O)[C@H](O)CO` [Compound I-628, 1-(4-{[4-chloro-3-({1-[4-(2-cyclopropoxyphenyl)pyridin-3-yl]cyclopropoxy}methyl)phenyl]sulfanyl}butyl)-3-[(2S,3R,4S,5R)-1,3,4,5,6-pentahydroxyhexan-2-yl]urea] cannot be ordered by EC50: under 100 nM for the first, under 100 nM for the second.

`CC(CCCCN)c1ccc(Cl)c(CNC2(c3cnccc3-c3ccccc3OC3CC3)CC2)c1` (stereo not shown) [Compound I-242, N-[[5-(6-aminohexan-2-yl)-2-chlorophenyl]methyl]-1-[4-(2-cyclopropoxyphenyl)pyridin-3-yl]cyclopropan-1-amine] and `Clc1ccc(C2CC2)cc1CNC1(c2cnccc2-c2ccccc2OC2CC2)CC1` [Compound I-31, N-[(2-chloro-5-cyclopropylphenyl)methyl]-1-[4-(2-cyclopropoxyphenyl)pyridin-3-yl]cyclopropan-1-amine] cannot be ordered by EC50: under 100 nM for the first, under 100 nM for the second.

`O=C(CCCSc1ccc(Cl)c(COC2(c3cnccc3-c3ccccc3OC3CC3)CC2)c1)N(Cc1ccccc1)C[C@H](O)[C@@H](O)[C@H](O)[C@H](O)CO` [Compound I-667, N-benzyl-4-{[4-chloro-3-({1-[4-(2-cyclopropoxyphenyl)pyridin-3-yl]cyclopropoxy}methyl)phenyl]sulfanyl}-N-[(2S,3R,4R,5R)-2,3,4,5,6-pentahydroxyhexyl]butanamide] and `O=C(CCS(=O)(=O)c1ccccc1)N(CCCCc1cc(Cl)c(COC2(c3cnccc3-c3ccccc3OC3CC3)CC2)cc1Cl)C[C@H](O)[C@@H](O)[C@H](O)[C@H](O)CO` [Compound I-70, 3-(benzenesulfonyl)-N-{4-[2,5-dichloro-4-({1-[4-(2-cyclopropoxyphenyl)pyridin-3-yl]cyclopropoxy}methyl)phenyl]butyl}-N-[(2S,3R,4R,5R)-2,3,4,5,6-pentahydroxyhexyl]propanamide] fall in the same range of EC50: 126 to 1000 nM for the first, 126 to 1000 nM for the second.

First: Cc1ccc([C@@H](C)CCCC(=O)N(C)C[C@H](O)[C@@H](O)[C@H](O)[C@H](O)CO)cc1CNC1(c2cnccc2-c2ccccc2OC2CC2)CC1 (single isomer, unassigned) [Compound I-350]
Second: Cc1ccc(C(C)CCCC(=O)N(CCN(C)C)C[C@H](O)[C@@H](O)[C@H](O)[C@H](O)CO)cc1CNC1(c2cnccc2-c2ccccc2OC2CC2)CC1 (stereo partly drawn) [Compound I-361, 5-{3-[({1-[4-(2-cyclopropoxyphenyl)pyridin-3-yl]cyclopropyl}amino)methyl]-4-methylphenyl}-N-[2-(dimethylamino)ethyl]-N-[(2S,3R,4R,5R)-2,3,4,5,6-pentahydroxyhexyl]hexanamide]
The EC50 of the first is lower: under 100 nM for the first, 126 to 1000 nM for the second.

`O=C(CN1CCC(NC(=O)NCCCCSc2ccc(Cl)c(COC3(c4cnccc4-c4ccccc4OC4CC4)CC3)c2)CC1)NC[C@H](O)[C@@H](O)[C@H](O)[C@H](O)CO` [Compound I-633, 2-(4-{[(4-{[4-chloro-3-({1-[4-(2-cyclopropoxyphenyl)pyridin-3-yl]cyclopropoxy}methyl)phenyl]sulfanyl}butyl)carbamoyl]amino}piperidin-1-yl)-N-[(2S,3R,4R,5R)-2,3,4,5,6-pentahydroxyhexyl]acetamide] and `CNC(=O)CN(C[C@H](O)[C@@H](O)[C@H](O)[C@H](O)CO)C(=O)CCCC(C)c1ccc(Cl)c(CNC2(c3cnccc3-c3ccccc3OC3CC3)CC2)c1` (stereo partly drawn) [Compound I-336, 5-{4-chloro-3-[({1-[4-(2-cyclopropoxyphenyl)pyridin-3-yl]cyclopropyl}amino)methyl]phenyl}-N-[(methylcarbamoyl)methyl]-N-[(2S,3R,4R,5R)-2,3,4,5,6-pentahydroxyhexyl]hexanamide] cannot be ordered by EC50: under 100 nM for the first, under 100 nM for the second.

`O=C(CCCCc1cc(Cl)c(COC2(c3cnccc3-c3ccccc3OC3CC3)CC2)cc1Cl)N1CCN(C[C@H](O)[C@@H](O)[C@H](O[C@@H]2O[C@H](CO)[C@H](O)[C@H](O)[C@H]2O)[C@H](O)CO)CC1` [Compound I-103, 5-[2,5-dichloro-4-({1-[4-(2-cyclopropoxyphenyl)pyridin-3-yl]cyclopropoxy}methyl)phenyl]-1-{4-[(2S,3R,4R,5R)-2,3,5,6-tetrahydroxy-4-{[(2S,3R,4S,5R,6R)-3,4,5-trihydroxy-6-(hydroxymethyl)oxan-2-yl]oxy}hexyl]piperazin-1-yl}pentan-1-one] and `Cc1ccc([C@@H](C)CCCC(=O)N(CCS(C)(=O)=O)C[C@H](O)[C@@H](O)[C@H](O)[C@H](O)CO)cc1CNC1(c2cnccc2-c2ccccc2OC2CC2)CC1` (single isomer, unassigned) [Compound I-367] cannot be ordered by EC50: under 100 nM for the first, under 100 nM for the second.
